Measured values taken from US20070059242A1, “METHODS TO IDENTIFY THERAPEUTIC AGENTS” (priority 2005, published 2007).

Experiments:
leukocyte cell lines = test: Cytotoxicity to leukocyte cell lines (similar procedures); type: cell-based
Description: (§1) Cytotoxicity assays. WI-L2 human B-lymphocyte line, HAAE-1 human abdominal aortic endothelial line, MH-S murine alveolar macrophage line, and J774A.1 murine tissue macrophage line were obtained from the ATCC. Human aortic endothelial cells (HAEC) and human vascular smooth muscle cells (VSMS) were obtained from Cambrex Bio Science. Jurkat E6-1T-lymphocytes were kindly provided by Dr. J. Kaye (The Scripps Research Institute). Cells were cultured in ATCC-recommended media with 10% fetal calf serum. Cells were incubated in a controlled atmosphere at 37° C., with 5 or 7% CO2. For lactate dehydrogenase (LDH) release assays, adherent cells were harvested either by addition of 0.05% trypsin/EDTA or by scraping. The cells obtained were seeded onto 96-well microtiter plates (25,000 cells/well) and allowed to recover for 24-48 h. Cells were washed gently and media replaced with fresh media containing 5% fetal calf serum. […] Cytotoxicity was then determined by measuring lactate dehydrogenase (LDH) release from cells in culture. […] 100% Cytotoxicity was defined as the maximum amount of LDH released by dead cells as shown by trypan blue exclusion, or the highest amount of LDH detected upon lysis of cells by 0.9% Triton X-100. The IC50 values were determined by comparison of the raw duplicate data for concentration versus cytotoxicity (%) to non-linear regression analysis (Hill plot) using Graphpad v3.0 software for Macintosh.

J774A.1 macrophages = test: Uptake and localization in macrophages by fluorescence microscopy; type: cell-based, murine; details: 50 μM dansyl derivative, 5 min to 1 h; not complexed with LDL
Description: J774A.1 cells were plated in 8-well chambered slides (Nalge Nunc International). Cells were gently washed twice with PBS, pH 7.4 before 5 min or 1 h exposure to 50 μM dansyl derivative of cholesterol ozonation product 5d or 5e, dansyl cholesterol derivative 9c or 9d, or dansyl hydrazine diluted in media without FCS (0.05% v/v final DMSO concentration). [drawing 28] Media was removed by aspiration and cells were fixed immediately in 95% ice cold methanol for 5 min. Cells were mounted in glycerol containing Antifade reagent (Molecular Probes). Fluorescence images were documented using DeltaVision Deconvolution microscope (API, Issaquah WA) equipped with a Photometrics CH350L liquid cooled CCD camera attached to an Olympus IX—70 inverted microscope. […] All images were deconvolved using constrained iterative algorithms (10 iterations) of DeltaVision software (softWoRx, v2.5). The deconvolved images were subsequently processed using softWoRx, v2.5.
In some experiments, murine macrophage RAW 264.7 (ECACC 91062702) cells were grown in RPMI (Gibco) with 10% FCS at 37° C. with 5% CO2. For fluorescence imaging, cells were incubated on cover slips in 6-well chambered plates (Costar) for 12 h, gently washed 3 times in PBS at pH 7.4, and incubated with 50 μM dansyl derivative of cholesterol ozonation product 5d or 5e, dansyl cholesterol derivative 9c or 9d, in RPMI with 10% FCS for 5, 15, 30, and 60 min. A solution of the dansyl derivative was then added in DMSO [final DMSO, 0.05% (v/v)]. Media was removed by aspiration, and cells were washed twice with PBS, followed by fixing in paraformaldehyde (3.7% in PBS) for 10 min. Cover slips were mounted in MOWIOL 4-88 (Calbiochem). Microscopy was performed using an inverted Zeiss Axioscope 2 Plus fluorescence microscope, and images were obtained with a Zeiss Axiocam digital camera using Axiovision software (version 3.1). The data were collected using a 63× oil immersion lens and DAPI filter (excitation 360/emission 460), and images were processed with Axiovision software and Adobe software (Photoshop 6.0).

THP-1 monocytes = test: Monocyte morphology changes (differentiation into macrophages); type: cell-based, human; details: 12.5 or 25 μM, 7 days
Description: THP-1 monocytes in suspension were plated in 8-well chambered slides. […] Media containing appropriate treatment compounds was replaced after 4 days. […]

E-selectin = test: Endothelial adhesion molecule expression ELISA, E-selectin; type: cell-based, human; details: HAAE-1, not complexed with LDL
Description: (§2) Endothelial cell surface adhesion molecule expression was measured by ELISA, using anti-human CD54 (ICAM-1), CD106 (VCAM-1) and CD62E (E-Selectin) antibodies (Leinco Technologies, Inc., St. Louis, Mo.). The ELISA method was modified from previously described procedures.
(§3) Cells were then incubated with antibodies to VCAM-1, E-selectin, or ICAM-1 diluted 1:400 in PBS containing 5% FCS at 37° C. for 30 min. Wells were washed two times with PBS, then incubated with horseradish peroxidase (HRP)-conjugated goat anti-mouse IgG (Southern Biotechnology Associates, Birmingham, Ala., USA) in PBS/5% FCS at 37° C. for 30 min. The wells were washed four times with PBS, then incubated with H2O2/3,3′,5,5′-tetramethyl-benzidine peroxidase substrate (Pierce Chemical, Rockford, Ill., USA) for 30 min in the dark. The reaction was stopped by adding 25 μl of 8 N H2SO4, and the plates read on a microplate reader, blanking on wells stained with only secondary antibody. Each assay was performed in triplicate and the data are reported as the mean±SEM as a percentage of the expression level of the vehicle. To study the effect of cholesterol ozonation product 5a concentration (5-50 μM) on E-selectin expression, the assay was performed in an identical fashion as described above, with each point being the mean±SEM of at least duplicate measurements.

[1] = tested on: T-lymphocyte cell line (Jurkat E6.1); test: LDH release cytotoxicity assay, Jurkat; type: cell-based; details: T-cell (Jurkat) cell line, concentration range of FIG. 6B
Description: as §1, with “h.” for “h. Cells were washed gently and media replaced with fresh media containing 5% fetal calf serum.”, “Macintosh. […]” for “Macintosh.”

[2] = tested on: WI-L2 human B-lymphocyte line; test: LDH release cytotoxicity assay, WI-L2; type: cell-based; details: B-cell (WI-L2) cell line, concentration range of FIG. 6A
Description: as §1
The following cell lines were employed in this study: a human B-lymphocyte (WI-L2) described in Levy et al., Cancer 22, 517 (1968); a T-lymphocyte cell line (Jurkat E6.1) described in Weiss et al., J. Immunol. 133, 123 (1984); a vascular smooth muscle cell line (VSMC) and an abdominal aorta endothelial (HAEC) cell line described in Folkman et al., Proc. Natl. Acad. Sci. U.S.A. 76, 5217 (1979); a murine tissue macrophage (J774A.1) described in Ralph et al., J. Exp. Med. 143, 1528 (1976); and an alveolar macrophage cell line (MH-S) described in Mbawuike et al., J. Leukoc. Biol. 46, 119 (1989).

VCAM-1 = test: Endothelial adhesion molecule expression ELISA, VCAM-1; type: cell-based, human; details: HAAE-1, not complexed with LDL
Description: as §2, §3

ICAM-1 = test: Endothelial adhesion molecule expression ELISA, ICAM-1; type: cell-based, human; details: HAAE-1, not complexed with LDL
Description: as §2, §3

CC(C)CCC[C@@H](C)[C@H]1CCC2C3C(CC[C@@]21C)[C@@]1(C)CCC=C[C@@]1(O)[C@@H]3CO (stereo partly drawn) [7c]
cytotoxic to leukocyte cell lines (leukocyte cell lines): cytotoxic

C[C@H](CCCC(=O)NS(=O)(=O)c1cccc2c(N(C)C)cccc12)[C@H]1CCC2C3C(CC[C@@]21C)C1(C)CC[C@H](O)CC1(O)[C@@H]3C=O (stereo partly drawn) [5e]
uptake and localization in macrophages (J774A.1 macrophages): initial punctate cytosolic accumulation

CC(C)CCC[C@@H](C)[C@H]1CC[C@H]2[C@@H]3C(=O)C=C4C[C@@H](O)CC[C@]4(C)[C@H]3CC[C@]12C [7-KC, 7-ketocholesterol, reference compound]
THP-1 cell adherence (differentiation into macrophages) (THP-1 monocytes): began to adhere after 4 days

CC(C)CCC[C@@H](C)[C@H]1CC[C@H]2[C@@H]3CC=C4C[C@@H](O)CC[C@]4(C)[C@H]3CC[C@]12C [compound 3, cholesterol, reference compound]
selectin (E-selectin) expression (E-selectin): no effects
cytotoxicity [1]: No cytotoxicity
cytotoxicity [2]: No cytotoxicity
integrin (VCAM-1) expression (VCAM-1): no effects
integrin (ICAM-1) expression (ICAM-1): no effects
THP-1 cell adherence (differentiation into macrophages) (THP-1 monocytes): induced no cell adherence

C[C@H](CCCC(=O)NS(=O)(=O)c1cccc2c(N(C)C)cccc12)[C@H]1CCC2C3CC=C4C[C@@H](O)CCC4(C)C3CC[C@@]21C (stereo partly drawn) [9d, reference compound]
uptake and localization in macrophages (J774A.1 macrophages): minimal fluorescence

CC(C)CCC[C@@H](C)[C@H]1CCC2C3C(C=O)=C4C=CCC[C@]4(C)C3CC[C@@]21C (stereo partly drawn) [12a, B-norcholest-3,5-diene-6-carboxaldehyde]
cytotoxic to leukocyte cell lines (leukocyte cell lines): cytotoxic

CC(C)CCC[C@@H](C)[C@H]1CCC2[C@H](CC=O)C([C@@]3(C)CCCCC(=O)O3)CC[C@@]21C (stereo partly drawn) [11a]
cytotoxic to leukocyte cell lines (leukocyte cell lines): cytotoxic

CC(C)CCC[C@@H](C)[C@H]1CCC2[C@H](CC(=O)O)C([C@@]3(C)CC[C@H](O)CC3=O)CC[C@@]21C (stereo partly drawn) [10a]
cytotoxic to leukocyte cell lines (leukocyte cell lines): cytotoxic

CC(C)CCC[C@@H](C)[C@H]1CCC2C3C(CC[C@@]21C)[C@@]1(C)CCC=C[C@@]1(O)[C@@H]3C=O (stereo partly drawn) [7a, 5β-Hydroxy-B-norcholest-3-ene-6β-carboxaldehyde]
cytotoxic to leukocyte cell lines (leukocyte cell lines): cytotoxic

CC(C)CCC[C@@H](C)[C@H]1CCC2C(CC=O)C([C@@]3(C)CCC=CC3=O)CC[C@@]21C (stereo partly drawn) [6a, 5-Oxo-5,6-secocholest-3-en-6-al]
cytotoxic to leukocyte cell lines (leukocyte cell lines): cytotoxic
